Results as given in article PMC3481155, “AhR activation underlies the CYP1A autoinduction by A-998679 in rats” (Frontiers in Genetics, 2012).

Columns and labels:
[1] = 5-day rat exploratory toxicology study (liver weight, clinical chemistry, histopathology); type: in vivo; conditions: 5 days
Description: All animal experiments were conducted in accordance with the Guiding Principles in the Use of Animals in Toxicology (http://www.toxicology.org/ai/air/air6.asp) and were approved by Abbott's Institutional Animal Care and Use Committee (IACUC). Male Sprague-Dawley rats [Crl:CD®(SD)IGS BR], weighing ~250 g at study initiation were obtained from Charles River Laboratories, Inc. (Wilmington, MA). Rats were housed singly in ventilated, stainless steel, wire-bottom hanging cages and fed non-certified Rodent Chow (Harlan Labs, Madison, WI), and water ad libitum and acclimated for at least 5 days after arrival. Rats were randomly assigned to various treatment groups (3 rats/group) and were dosed once daily by oral gavage with vehicle (0.2% hydroxypropylmethylcellulose at a dose volume of 10 ml/kg) or with 30, 100, or 200 mg/kg of A-998679. All rats were fasted overnight after their last dose, weighed and sacrificed under isoflurane anesthesia. For histopathological evaluation, liver, heart, kidney, spleen, bone (sternum) with marrow, gastrointestinal tract (duodenum with pancreas, jejunum, ileum, cecum, and colon), thymus, and lung were fixed in formalin, routinely processed, and embedded in paraffin. Paraffin sections (4 μm) were stained with hematoxylin and eosin. Liver and small intestine (jejunum) were also flash frozen in liquid nitrogen and stored at −80°C until processing for gene expression profiling. Serum clinical chemistry parameters were quantified using an Aeroset Clinical Chemistry Analyzer (Abbott Laboratories, Abbott Park, IL) and included alanine amino transferase (ALT), aspartate amino transferase (AST), gamma glutamyltransferase (GGT), and alkaline phosphatase (ALP) activities.

[2] = test system: CYP1A1; assay: CYP1A1 mRNA induction in primary human hepatocytes; type: cell-based; conditions: 24 h, dose-dependent
Description: Rat hepatocytes were isolated in a perfusion procedure as described previously (Elliget and Kolaja, [1983]; Waring et al., [2001]). The beagle dog hepatocytes were isolated in the same manner, except for adjustment of flow rate and buffer volume to scale to liver size. Cells were plated at a seeding density of 1.0 × 10^6 cells per well on 6-well, collagen-type I coated plates (BD Biosciences, Bedford, MA) in hepatocyte plating medium (Celsis, Baltimore, MD). Cells were allowed to attach for 24 h in a 37°C humidified incubator with a 5% CO2 atmosphere and were dosed for 24 h (rat) or 48 h (dog) with vehicle control [0.1% DMSO (v/v)] or 10 μM A-998679 in fresh treatment media (Celsis hepatocyte incubation media) every 24 h. After the last incubation, cells were lysed in 1 ml of Qiazol (Qiagen) and stored at −80°C until RNA isolation. Cryopreserved human hepatocytes (donor designation Hu4198; Invitrogen Life Technologies, Carlsbad, CA) were thawed and plated according to the manufacturer's protocol and allowed to incubate for 24 h. […]
RNA samples were diluted with RNase-free molecular biology grade water to a concentration of 20 ng/μl total RNA. […] Results were analyzed by calculating the fold change of CYP1A1 and/or CYP1A2 mRNA levels normalized to 28S rRNA (ΔΔ Ct) in compound treated cells or tissues compared to vehicle levels. […]

[3] = biological target: T1, rat Cyp1a1 (Rattus norvegicus, UniProt P00185); assay: Recombinant rat Cyp phenotype profiling, 1A1; type: in vitro ADME; conditions: recombinant rat Cyp 1A1 (200 pmol/ml), 60 min
T1 construct: purchased BD Gentest; host or cells: baculovirus infected insect cells
Description: (§1) Identification of the drug metabolizing enzymes (DMEs) of A-998679 was studied in cDNA expressed recombinant enzymes prepared from baculovirus infected insect cells over-expressing rat Cyp isoforms (BD Gentest, Woburn, MA) as listed in Table 2. Incubations were conducted in duplicate using Supersomes. The incubation mixture contained 100 pmol/ml of enzymes, except for Cyp1a1 (200 pmol/ml), 0.1 or 0.21 μM of [^3H]A-998679 in 100 mM phosphate buffer (pH 7.4). Reactions were initiated with the addition of NADPH at a final concentration of 1 mM and incubated at 37°C for 60 min. At the end of the incubation period, the incubations were terminated by the addition of acetonitrile/ethanol (50/50, v/v) solution. Insect control samples lacking expressed enzyme were used as negative control. The degree of metabolism of A-998679 was assessed by percent of parent remaining using the radio-HPLC method described below.
(§2) Radiolabeled components from the above assays were profiled following separation by HPLC with on line radioflow detector. The system consisted of an Agilent 1100 Series quaternary pump and autosampler connected to a Packard 500TR flow scintillation detector. The data were processed using the Radiomatic™ Flo-one® software v3.65. The scintillant (Perkin Elmer FLO-SCINT™ III) flow was maintained at 3 ml/min. […]

[4] = biological target: T2, rat Cyp 2C13 (Rattus norvegicus, UniProt P20814); assay: Recombinant rat Cyp phenotype profiling, 2C13; type: in vitro ADME; conditions: 60 min
T2 construct: purchased BD Gentest; host or cells: baculovirus infected insect cells
Description: as §1, §2

[5] = biological target: T3, rat Cyp 2D1 (Rattus norvegicus, UniProt P10633); assay: Recombinant rat Cyp phenotype profiling, 2D1; type: in vitro ADME; conditions: 60 min
T3 construct: purchased BD Gentest; host or cells: baculovirus infected insect cells
Description: as §1, §2

T3 sequence (P10633 whole entry): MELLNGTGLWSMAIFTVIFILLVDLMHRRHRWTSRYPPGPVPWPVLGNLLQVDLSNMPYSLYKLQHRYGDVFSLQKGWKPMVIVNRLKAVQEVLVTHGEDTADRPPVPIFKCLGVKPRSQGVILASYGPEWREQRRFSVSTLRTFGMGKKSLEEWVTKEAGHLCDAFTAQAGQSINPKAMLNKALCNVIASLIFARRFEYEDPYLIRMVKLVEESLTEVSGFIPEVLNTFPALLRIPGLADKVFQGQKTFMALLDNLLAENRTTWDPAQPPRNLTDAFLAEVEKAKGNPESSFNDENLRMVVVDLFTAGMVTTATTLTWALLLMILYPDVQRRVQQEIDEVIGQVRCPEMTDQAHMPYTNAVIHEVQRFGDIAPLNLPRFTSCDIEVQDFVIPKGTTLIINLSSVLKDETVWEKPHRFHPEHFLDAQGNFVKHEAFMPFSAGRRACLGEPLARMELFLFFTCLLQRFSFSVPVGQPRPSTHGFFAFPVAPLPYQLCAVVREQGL
T2 sequence (P20814 whole entry): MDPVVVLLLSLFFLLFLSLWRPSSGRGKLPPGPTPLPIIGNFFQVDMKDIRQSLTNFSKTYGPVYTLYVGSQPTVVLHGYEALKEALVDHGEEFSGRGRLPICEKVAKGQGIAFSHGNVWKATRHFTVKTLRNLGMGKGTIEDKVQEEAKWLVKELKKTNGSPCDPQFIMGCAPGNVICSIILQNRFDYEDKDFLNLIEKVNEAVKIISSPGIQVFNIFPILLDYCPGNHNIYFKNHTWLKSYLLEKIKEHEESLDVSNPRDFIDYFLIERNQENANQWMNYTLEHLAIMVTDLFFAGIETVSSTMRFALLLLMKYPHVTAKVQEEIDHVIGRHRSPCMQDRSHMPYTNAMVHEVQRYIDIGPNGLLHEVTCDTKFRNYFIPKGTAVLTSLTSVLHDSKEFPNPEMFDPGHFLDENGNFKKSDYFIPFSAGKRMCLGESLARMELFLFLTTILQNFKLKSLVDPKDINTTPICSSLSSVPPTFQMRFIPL
T1 sequence (P00185 whole entry): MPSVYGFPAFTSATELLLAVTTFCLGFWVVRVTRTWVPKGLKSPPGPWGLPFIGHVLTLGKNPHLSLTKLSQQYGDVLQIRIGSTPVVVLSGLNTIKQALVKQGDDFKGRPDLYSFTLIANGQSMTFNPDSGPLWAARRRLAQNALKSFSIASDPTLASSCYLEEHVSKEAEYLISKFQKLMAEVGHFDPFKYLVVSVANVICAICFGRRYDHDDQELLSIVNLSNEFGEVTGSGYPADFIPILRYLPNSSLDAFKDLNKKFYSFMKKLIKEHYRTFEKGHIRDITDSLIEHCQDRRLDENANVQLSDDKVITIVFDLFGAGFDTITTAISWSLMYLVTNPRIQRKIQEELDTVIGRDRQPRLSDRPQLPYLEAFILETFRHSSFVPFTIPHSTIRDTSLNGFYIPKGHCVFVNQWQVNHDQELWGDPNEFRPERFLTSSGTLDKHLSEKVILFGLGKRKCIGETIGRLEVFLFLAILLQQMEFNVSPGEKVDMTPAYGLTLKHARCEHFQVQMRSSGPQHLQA

lowest concentration inducing CYP1A1 mRNA [2]: 3 µM
% parent remaining ([3]; 0.10 μM): 0%
% parent remaining ([3]; 0.21 μM): 0%
% parent remaining ([4]; recombinant rat Cyp 2C13, 0.10 μM): 100%
% parent remaining ([4]; recombinant rat Cyp 2C13, 0.21 μM): 100%
% parent remaining ([5]; recombinant rat Cyp 2D1, 0.10 μM): 91.9%
% parent remaining ([5]; recombinant rat Cyp 2D1, 0.21 μM): 91.1%
SMILES: N#Cc1cccc(-c2noc(-c3cccnc3)n2)c1 [A-998679, 3-(5-pyridin-3-yl-1,2,4-oxadiazol-3-yl) benzonitrile]
increase in relative liver weight ([1]; 200 mg/kg/day): ~ 25%
clinical chemistry parameters ([1]; 30-200 mg/kg/day): No significant changes
histopathology ([1]; 30-200 mg/kg/day): No significant changes
change in relative liver weight ([1]; lower doses (30 and 100 mg/kg/day)): no change
